{
  "source": "ChEMBL document CHEMBL2176884",
  "about": "“ATP-binding site of bacterial enzymes as a target for antibacterial drug design” (J Med Chem, 2011)",
  "key": {"[1]": {"target": "T1, Pantothenate synthetase (Mycobacterium tuberculosis, UniProt P9WIL5)", "T1 sequence (P9WIL5 whole entry)": "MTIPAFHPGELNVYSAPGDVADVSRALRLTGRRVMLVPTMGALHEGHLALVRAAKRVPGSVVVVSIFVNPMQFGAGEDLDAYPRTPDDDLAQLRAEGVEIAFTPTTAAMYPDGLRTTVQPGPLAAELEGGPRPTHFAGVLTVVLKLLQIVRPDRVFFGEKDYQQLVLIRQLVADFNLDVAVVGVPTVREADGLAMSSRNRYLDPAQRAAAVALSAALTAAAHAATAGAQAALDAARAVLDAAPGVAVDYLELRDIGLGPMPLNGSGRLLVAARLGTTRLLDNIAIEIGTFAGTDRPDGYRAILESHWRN", "assay": "Inhibition of Mycobacterium tuberculosis Pantothenate synthetase"}, "[2]": {"assay": "Inhibition of Staphylococcus sp. APH(3')-3a"}, "[3]": {"target": "T1, Pantothenate synthetase", "assay": "Binding affinity to Mycobacterium tuberculosis Pantothenate synthetase"}, "[4]": {"assay": "Inhibition of Escherichia coli ACCase"}, "[5]": {"test_system": "Haemophilus influenzae", "assay": "Antimicrobial activity against Haemophilus influenzae after broth microdilution method", "type": "functional"}, "[6]": {"assay": "Inhibition of DNA gyrase"}, "[7]": {"assay": "Inhibition of Saccharomyces cerevisiae sensor kinase Sln1"}, "[8]": {"target": "T2, Virulence sensor histidine kinase PhoQ (Salmonella typhimurium (strain LT2 / SGSC1412 / ATCC 700720), UniProt P0DM80)", "T2 sequence (P0DM80 whole entry)": "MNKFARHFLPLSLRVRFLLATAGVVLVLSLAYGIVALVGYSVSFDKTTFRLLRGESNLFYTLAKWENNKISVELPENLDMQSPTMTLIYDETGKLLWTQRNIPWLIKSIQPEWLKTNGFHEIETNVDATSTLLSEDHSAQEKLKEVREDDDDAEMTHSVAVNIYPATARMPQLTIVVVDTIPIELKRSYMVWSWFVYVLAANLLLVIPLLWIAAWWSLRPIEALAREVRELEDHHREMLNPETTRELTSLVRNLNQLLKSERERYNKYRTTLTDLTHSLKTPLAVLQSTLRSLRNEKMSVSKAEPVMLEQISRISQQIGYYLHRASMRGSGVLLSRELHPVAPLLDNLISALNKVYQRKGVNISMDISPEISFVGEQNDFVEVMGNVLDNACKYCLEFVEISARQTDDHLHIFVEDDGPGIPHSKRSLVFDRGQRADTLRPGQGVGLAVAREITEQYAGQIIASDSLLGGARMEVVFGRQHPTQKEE", "assay": "Inhibition of Salmonella typhimurium sensor kinase PhoQ", "parameters": "species or system Salmonella enterica subsp. enterica serovar Typhimurium"}, "[9]": {"assay": "Inhibition of Saccharomyces cerevisiae Hsp90"}, "[10]": {"assay": "Inhibition of bacteria biotin carboxylase"}, "[11]": {"test_system": "Enterococcus sp.", "assay": "Antimicrobial activity against Enterococcus", "type": "functional"}, "[12]": {"test_system": "Staphylococcus sp.", "assay": "Antimicrobial activity against Staphylococcus", "type": "functional"}, "[13]": {"assay": "Inhibition of EnvZ by strand-transfer assay"}, "[14]": {"assay": "Inhibition of Escherichia coli His6-tagged ParC/ParE expressed in baculovirus-infected Sf9 cells by gel electrophoresis"}},
  "data": [
    {"smiles": "COCC(C)(C)C(O)C(=O)NS(=O)(=O)OC[C@H]1O[C@@H](n2cnc3c(N)ncnc32)[C@H](O)[C@@H]1O", "note": "(stereo partly specified)", "values": [
      {"measurement": "Ki", "setting": "[1]", "result": 300, "unit": "nM"}
    ]},
    {"smiles": "C[C@H]1CNCCN1S(=O)(=O)c1cccc2cnccc12", "values": [
      {"measurement": "Ki", "setting": "[2]", "result": 49000, "unit": "nM"}
    ]},
    {"smiles": "NCCNS(=O)(=O)c1cccc2cnccc12", "values": [
      {"measurement": "Ki", "setting": "[2]", "result": 49000, "unit": "nM"}
    ]},
    {"smiles": "COc1ccc2c(c1)cc(CNC(=O)c1cc3ccccc3o1)n2CC(=O)O", "values": [
      {"measurement": "Kd", "setting": "[3]", "result": 860, "unit": "nM"}
    ]},
    {"smiles": "NCCNS(=O)(=O)c1ccc(Cl)c2ccncc12", "values": [
      {"measurement": "Ki", "setting": "[2]", "result": 49000, "unit": "nM"}
    ]},
    {"smiles": "Nc1ncc2cc(-c3c(Br)cccc3Br)c(N)nc2n1", "values": [
      {"measurement": "IC50", "setting": "[4]", "result": "< 5", "unit": "nM"},
      {"measurement": "MIC", "setting": "[5]", "result": 0.125, "unit": "µg/mL"}
    ]},
    {"smiles": "N=C(N)NCCNS(=O)(=O)c1cccc2cnccc12", "values": [
      {"measurement": "Ki", "setting": "[2]", "result": 49000, "unit": "nM"}
    ]},
    {"smiles": "CC(C)(C)[C@@H](N)C(=O)NS(=O)(=O)OC[C@H]1O[C@@H](n2cnc3c(N)ncnc32)[C@H](O)[C@@H]1O", "values": [
      {"measurement": "Ki", "setting": "[1]", "result": 300, "unit": "nM"}
    ]},
    {"smiles": "CC(C)(C)C(=O)C(=O)NS(=O)(=O)OC[C@H]1O[C@@H](n2cnc3c(N)ncnc32)[C@H](O)[C@@H]1O", "values": [
      {"measurement": "Ki", "setting": "[1]", "result": 300, "unit": "nM"}
    ]},
    {"smiles": "COc1cccc(OC)c1-c1cc2cnc(N)nc2nc1N", "values": [
      {"measurement": "IC50", "setting": "[4]", "result": 28, "unit": "nM"},
      {"measurement": "MIC", "setting": "[5]", "result": 0.125, "unit": "µg/mL"}
    ]},
    {"smiles": "Cc1cc(=O)oc2cc(SCc3n[nH]c4cccc(OCc5ccc(C(C)(C)C)cc5)c34)ccc12", "values": [
      {"measurement": "MNEC", "setting": "[6]", "result": 0.03, "unit": "µg/mL"}
    ]},
    {"smiles": "C[C@@H]1C[C@H]2O[C@@H]2/C=C\\C=C\\C(=O)Cc2c(Cl)c(O)cc(O)c2C(=O)O1", "note": "[RADICICOL]", "values": [
      {"measurement": "IC50", "setting": "[7]", "result": 127000, "unit": "nM"},
      {"measurement": "Kd", "setting": "[8]", "result": 715000, "unit": "nM"},
      {"measurement": "Kd", "setting": "[9]", "result": 19, "unit": "nM"}
    ]},
    {"smiles": "Cc1ccccc1CN(Cc1ccc2c(c1)OCCO2)C(=O)c1cnc(N)o1", "values": [
      {"measurement": "IC50", "setting": "[10]", "result": 7, "unit": "nM"}
    ]},
    {"smiles": "COC(=O)C1CCCC(NCc2n[nH]c3cccc(OCc4cc(Cl)cc(Cl)c4)c23)C1", "note": "(stereo unspecified)", "values": [
      {"measurement": "MIC", "setting": "[11]", "result": 4, "unit": "µg/mL"},
      {"measurement": "IC50", "setting": "[6]", "result": 0.25, "unit": "µg/mL"},
      {"measurement": "MIC", "setting": "[12]", "result": 4, "unit": "µg/mL"}
    ]},
    {"smiles": "CC(C)(C)C(O)C(=O)NS(=O)(=O)OC[C@H]1O[C@@H](n2cnc3c(N)ncnc32)[C@H](O)[C@@H]1O", "note": "(stereo partly specified)", "values": [
      {"measurement": "Ki", "setting": "[1]", "result": 300, "unit": "nM"}
    ]},
    {"smiles": "CO[C@@H]1[C@@H](OC(N)=O)[C@@H](O)[C@H](Oc2ccc3c(O)c(NC(=O)c4ccc(O)c(CC=C(C)C)c4)c(=O)oc3c2C)OC1(C)C", "note": "[NOVOBIOCIN]", "values": [
      {"measurement": "Kd", "setting": "[13]", "result": 120000, "unit": "nM"},
      {"measurement": "IC50", "setting": "[14]", "result": 210, "unit": "nM"}
    ]},
    {"smiles": "COCCC(O)C(=O)NS(=O)(=O)OC[C@H]1O[C@@H](n2cnc3c(N)ncnc32)[C@H](O)[C@@H]1O", "note": "(stereo partly specified)", "values": [
      {"measurement": "Ki", "setting": "[1]", "result": 300, "unit": "nM"}
    ]},
    {"smiles": "O=S(=O)(c1ccc(Cl)c2ccncc12)N1CCNCC1", "values": [
      {"measurement": "Ki", "setting": "[2]", "result": 49000, "unit": "nM"}
    ]},
    {"smiles": "COc1ccc2c(c1)cc(C)n2CC(=O)O", "values": [
      {"measurement": "Kd", "setting": "[3]", "result": 800000, "unit": "nM"}
    ]}
  ]
}
